In brackets after ≈: the same amount, converted by molar mass. Each block holds one molecule with its values, some of them ahead of it.
Tests used:
[1] = Chemical stability according to ICH guidelines under accelerated conditions (40° C.); type: physicochemical
Protocol: Stability was tested according to ICH guidelines under accelerated conditions (40° C.).

[2] = Aqueous solubility (neutral pH); type: physicochemical; settings: for solubility: aqueous medium
[3] = Dog PKs study / comparative bioequivalence (IV vs oral netupitant); type: in vivo, Beagle dogs
Protocol: The pharmacokinetics (PKs) study of three compounds (e.g., compound nos. 1-3 of the above Table 3), as compared to a reference compound—netupitant (orally administered), on rat and dog was conducted.
Dog PKs Study: the dogs tested in the study were Beagle dogs, body weight 8-10 kg, and 3 male dogs per group. The four PK experiments were performed in 12 naïve dogs. The dose was 3 mg/kg administered via intravenous (IV) slow injection into the left and right cephalic or left and right saphenous veins used in rotation. […] The dose was administered to each animal on the basis of the most recently recorded body weight and the volume administered was recorded for each animal. Netupitant 3 mg/kg dose was tested at 2 ml/kg in vehicle (DMSO:Ethanol:Tween80 solution=[…], v/v), dependence on its solubility. Dose was freshly prepared before each single PK experiment. Before administration, dogs were fasted 12 hr, water ad libitum. After 480 min time point blood was collected, dogs were fed. 0.5 ml blood was collected in heparinised tubes at pre-dose and at 2, 5, 15, 30 min, 1, 2, 4, 6, 8, 12, 24, 36, 48 and 72 hr after intravenous administration. […] Prepared quantification standard curve at 2, 10, 40, 100, 200, 1000 and 2000 ng/ml (diluted from methanol stock with methanol containing 1% formic acid). […] Dog plasma samples were analyzed by using an API4000 MS coupled with HPLC. […]

[4] = Stability studies of GA1 parent acid species and its salts (degradation on storage)
Protocol: Their synthesis employed either a) neutralization of the dried diacid phosphate species and its corresponding base salts or b) a direct acid deprotection starting from the dried di(tert-butyl)-protected phosphate species. Neutralization was performed with L-histidine, magnesium salt, N-methyl-D-glucamine (dimeglumine), and L-lysine. Both procedures were tried in the synthesis of citric derivatives whereas with other acids the direct deprotection reaction was used. The figures below show the most relevant structures.
Alphabetical letters are used to denote data points on the graph that correspond to degradation percentage values over time for respective salts of the same parent compound as just described above and in Table 2 below.

SMILES: Cc1ccccc1-c1cc(N2CCN(C)CC2)[n+]([O-])cc1N(C)C(=O)C(C)(C)c1cc(C(F)(F)F)cc(C(F)(F)F)c1 [Compound 4]
Chemical Stability [1]: medium
solubility ([2]; pH 7): ~600 µg/mL (≈ 1010 µM)

SMILES: Cc1ccccc1-c1cc(N2CCN(C)CC2)ncc1N(C)C(=O)C(C)(C)c1cc(C(F)(F)F)cc(C(F)(F)F)c1 [Compound 9, 2-(3,5-bis(trifluoromethyl)phenyl)-N,2-dimethyl-N-(6-(4-methylpiperazin-1-yl)-4-(o-tolyl)pyridin-3-yl)propanamide, reference compound]
solubility ([2]; pH 7, unit inferred): 250 µg/mL (≈ 432 µM)
AUC(0-t) ([3]; male, beagle, plasma, PO, 3 mg/kg, read-out: Mean AUC0-t (converted)): 5120 ng·h/mL

SMILES: Cc1ccccc1-c1cc([N+]2([O-])CCN(C)CC2)[n+]([O-])cc1N(C)C(=O)C(C)(C)c1cc(C(F)(F)F)cc(C(F)(F)F)c1 [Compound 6]
Chemical Stability [1]: low

SMILES: CC(=O)OC[N+]1(C)CCN(c2cc(-c3ccccc3C)c(N(C)C(=O)C(C)(C)c3cc(C(F)(F)F)cc(C(F)(F)F)c3)cn2)CC1 [Compound 7]
Chemical Stability [1]: low
Solubility (neutral pH) [2]: insoluble

SMILES: CCCC(=O)OC[N+]1(C)CCN(c2cc(-c3ccccc3C)c(N(C)C(=O)C(C)(C)c3cc(C(F)(F)F)cc(C(F)(F)F)c3)cn2)CC1 [Compound 8]
Chemical Stability [1]: Low
Solubility (neutral pH) [2]: insoluble

SMILES: Cc1ccccc1-c1cc([N+]2([O-])CCN(C)CC2)ncc1N(C)C(=O)C(C)(C)c1cc(C(F)(F)F)cc(C(F)(F)F)c1 [Compound 5, reference compound]
Chemical Stability [1]: medium
solubility ([2]; pH 7): ~1000 µg/mL (≈ 1680 µM)

Continued, values first:

Chemical Stability [1]: medium
solubility ([2]; pH 7): 10000 to 15000 µg/mL
bioequivalence to oral netupitant at the same dose ([3]; IV): bioequivalent
SMILES: Cc1ccccc1-c1cc(N2CC[N+](C)(COP(=O)(O)O)CC2)ncc1N(C)C(=O)C(C)(C)c1cc(C(F)(F)F)cc(C(F)(F)F)c1 [Compound 1]

Product stability (comment) [4]: Product degrades rapidly.
SMILES: Cc1ccccc1-c1cc(N2CC[N+](C)(COP(=O)([O-])O)CC2)ncc1N(C)C(=O)C(C)(C)c1cc(C(F)(F)F)cc(C(F)(F)F)c1 [HBr, 48%, 4 eq.]

Degradation ([4]; 1 week): over 8
Degradation ([4]; 6 months): over 65%
total degradation ([4]; 6 months): 7.0300
SMILES: Cc1ccccc1-c1cc(N2CC[N+](C)(COP(=O)([O-])O)CC2)ncc1N(C)C(=O)C(C)(C)c1cc(C(F)(F)F)cc(C(F)(F)F)c1 [parent acid species]

Degradation ([4]; 12 days): +1.80% in 12 days (in argon)
Degradation ([4]; 14 days): +1.95% in 14 days (in air)
SMILES: Cc1ccccc1-c1cc(N2CC[N+](C)(COP(=O)([O-])O)CC2)ncc1N(C)C(=O)C(C)(C)c1cc(C(F)(F)F)cc(C(F)(F)F)c1 [1. NaOH, 3 eq. 2. Fumaric acid, 1 eq.]

Degradation ([4]; 6 days): +0.87% in 6 days (in air)
Degradation ([4]; 11 days): +1.52% in 11 days (in argon)
SMILES: Cc1ccccc1-c1cc(N2CC[N+](C)(COP(=O)([O-])O)CC2)ncc1N(C)C(=O)C(C)(C)c1cc(C(F)(F)F)cc(C(F)(F)F)c1 [N-methyl-D-glucamine (Meglumine), 2 eq.]

Degradation ([4]; 12 days): +0.48% in 12 days (in argon)
Degradation ([4]; 14 days): +0.69% in 14 days (in air)
SMILES: Cc1ccccc1-c1cc(N2CC[N+](C)(COP(=O)([O-])O)CC2)ncc1N(C)C(=O)C(C)(C)c1cc(C(F)(F)F)cc(C(F)(F)F)c1 [L-lysine, 1 eq.]

resistance to decoupling of the oxo-phosphonomethyl and reversion of the active moiety to its parent state [4]: tremendously resistant
SMILES: Cc1ccccc1-c1cc(N2CC[N+](C)(COP(=O)(O)O)CC2)ncc1N(C)C(=O)C(C)(C)c1cc(C(F)(F)F)cc(C(F)(F)F)c1.Cl.[Cl-] [chloride hydrochloride HCl salt of GA1, 4-(5-(2-(3,5-bis(trifluoromethyl)phenyl)-N,2-dimethylpropanamido)-4-(o-tolyl)pyridin-2-yl)-1-methyl-1-((phosphonooxy)methyl)piperazin-1-ium chloride hydrochloride]
